# From article PMC8481536, “Wells–Dawson phosphotungstates as mushroom tyrosinase inhibitors: a speciation study” (Scientific Reports, 2021)
# Where two headings read alike, the source gives them in different places. Marks after values point to notes of the source that are not given here.
# Key:
# [1] = molecular target: T1, AbPPO4 (Agaricus bisporus, UniProt C7FF05, S179N/V121A); type: biochemical; design: α · Ki: unit not given here; details: for Inhibition type / α (inhibition parameter) from the Lineweaver–Burk intercepts / Ki / α (inhibition parameter) from activity plot: 50 mM Na-citrate pH 6.8; for Inhibition type: L-DOPA substrate; for α · Ki: from Lineweaver-Burk ordinate intercepts vs [I], [S] 0.4-[…] (Table S5); for α (inhibition parameter) from activity plot: hyperbolic fit
# T1 construct: GST (glutathione-S-transferase) (N, cleaved yes); made in house; host or cells: E. coli BL21(DE3)
# T1 sequence (C7FF05 1-383 V121A/S179N): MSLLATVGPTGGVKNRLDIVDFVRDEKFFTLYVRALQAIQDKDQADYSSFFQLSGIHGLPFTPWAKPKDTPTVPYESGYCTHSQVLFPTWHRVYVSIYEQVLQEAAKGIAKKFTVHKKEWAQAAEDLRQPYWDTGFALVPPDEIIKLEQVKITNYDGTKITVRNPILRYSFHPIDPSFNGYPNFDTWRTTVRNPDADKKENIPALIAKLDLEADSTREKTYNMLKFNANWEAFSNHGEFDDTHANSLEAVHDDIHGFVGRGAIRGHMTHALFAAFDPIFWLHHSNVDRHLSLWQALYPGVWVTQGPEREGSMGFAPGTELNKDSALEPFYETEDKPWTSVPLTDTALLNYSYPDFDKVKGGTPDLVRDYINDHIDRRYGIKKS
# Method: AbPPO4 was purified and activated according to Pretzler et al.[15]. […] The diphenolase activity of tyrosinase was monitored using 1 mM L-DOPA (Fig. S1A) as the substrate. Considering that the Wells–Dawson POT stability is pH and possibly time dependent, a speciation study was performed which is detailed in the paragraph "Speciation of Wells–Dawson POT by ^183W-NMR and ^31P-NMR analyses at pH 6.8". The concentration of the investigated Wells–Dawson phosphotungstates was in the range between 0 and 5 mM. If enzymatic inhibition was observed, data were taken in triplicates and fitted with a hyperbolic function (cf. SI Eq. (5)) from a mixed inhibition model to evaluate the Ki and α-parameters. […] (Fig. S1B) was additionally tested and evaluated applying exactly the same mathematical model.
# The type of enzymatic inhibition is usually investigated by linear plots according to Lineweaver–Burk, also allowing for further validation of the inhibitory constant Ki.[9] […] The slopes (SI Eq. (13), insets in Figs. S14–S17) and ordinate intercepts of these regression lines were further evaluated to validate the inhibitory constant Ki and the α-parameter from the non-linear regression procedure. […] Similarly, the Lineweaver–Burk ordinate intercepts were evaluated for the α-parameter (cf. Table S5 and Table 1).
# UV–VIS measurements were carried out on a Shimadzu UV 2401PC following the specific absorption of dopachrome at 475 nm (ε = 3700 M^−1 cm^−1[7]). For all measurements, 50 mM Na-citrate at pH 6.8 was used as the buffer agent to ensure physiological conditions. The stock solutions of POTs were prepared on the day of measurements and used within 3 days.
# For a general 1 mL reaction setup in a polystyrene cuvette, 1 µg/mL AbPPO4 (~ 23 nM) was used to catalyze the reaction. The relative inhibition was investigated using 1 mM L-DOPA as the substrate and applying an inhibitor concentration range from 0 to 5 mM to obtain activity curves. For the Lineweaver–Burk plots, a L-DOPA concentration range of 0.4–1.5 mM was assayed for three different POT concentrations, respectively. […]
# is the enzymatic reaction velocity, the maximal enzymatic velocity of the enzyme, the concentration for the half-maximal velocity and the substrate concentration. If enzyme inhibition is taken into account, apparent values (e.g., , , ) are employed. For all inhibition mechanisms the apparent maximal velocity is given by and the apparent Michalis-Menten constant is Equations (3) and (2) are inserted into equation (1). To obtain the relative inhibition (in %), is divided by the uninhibited enzymatic velocity .
# Herein, [I] refers to the inhibitor concentration, Ki is the inhibition constant measuring the […]
# The three ideal inhibition types are reflected by three limiting conditions for α, with α as quotient of the inhibition constant of the uncompetitive and competitive inhibition:
# (A) 0 < α <<1: uncompetitive inhibition
# (B) α = 1: non-competitive inhibition
# (C) α >> 1: competitive inhibition […]
# uncompetitive and non-competitive inhibition modes.
# The concentration of L-DOPA was kept constant at 1 mM for all experiments.
# The final hyperbolic equation (5) was used for the curve
# [2] = test system: aquaporin-3; design: method as in PMID 32252345; details: cited from earlier work
# [3] = test system: P-type ATPase; design: method as in PMID 29313547; details: cited from earlier work
# [4] = test system: Ca^2+-ATPase; design: method as in PMID 29313547; details: cited from earlier work
# [5] = L-DOPA 0.4-[…], three inhibitor concentrations, read-out: Ki (inhibition constant) from the Lineweaver–Burk slopes
# [6] = hyperbolic fit of mixed inhibition model, 1 mM L-DOPA, 0-5 mM inhibitor, read-out: Ki (inhibition constant) from activity plot
Substance,Inhibition type [1],α (inhibition parameter) from the Lineweaver–Burk intercepts ([1]; L-DOPA 0.4-[…]),"Ki [1, 5] [mM]",α · Ki [1],"Ki [1, 6] [mM]",α (inhibition parameter) from activity plot ([1]; 1 mM L-DOPA),Inhibition of aquaporin-3 [2],Inhibition of P-type ATPase [3],Inhibition of Ca2+-ATPase [4]
K10[α2-P^V2W^VI17O61]·20H2O [[P2W17]^10−],mixed-type inhibition,"0.01^a, 0.01^b",10.6,0.10,6.5,"0.01^a, 0.01^b",,,
K6[α/β-P^V2W^VI18O62]·14H2O [[P2W18]^6−],mixed-type inhibition,0.22,13,2.85,9.7,0.013,inhibited,inhibited,inhibited
(NH4)12[H2P^V2W^VI12O48]·24H2O [[P2W12]^12−],mixed-type inhibition,0.28,5.6,1.58,7.5,0.017,inhibited,inhibited,inhibited
K12[P^V2W^VI15O56]·24H2O [[P2W15]^12−],mixed-type inhibition,0.20,10.7,2.14,13.6,0.003,,,
